The values below come from patent publication US20240252499A1, “Treatment of uremic pruritus” (CymaBay Therapeutics, Inc., priority 2023, published 2024).

Series [1] has as its system IL-31. To be noted: NASH patients; cited from earlier work.
For the next series, the target named is T1, PPARa (Homo sapiens, UniProt Q07869).
T1 sequence (Q07869 1-468): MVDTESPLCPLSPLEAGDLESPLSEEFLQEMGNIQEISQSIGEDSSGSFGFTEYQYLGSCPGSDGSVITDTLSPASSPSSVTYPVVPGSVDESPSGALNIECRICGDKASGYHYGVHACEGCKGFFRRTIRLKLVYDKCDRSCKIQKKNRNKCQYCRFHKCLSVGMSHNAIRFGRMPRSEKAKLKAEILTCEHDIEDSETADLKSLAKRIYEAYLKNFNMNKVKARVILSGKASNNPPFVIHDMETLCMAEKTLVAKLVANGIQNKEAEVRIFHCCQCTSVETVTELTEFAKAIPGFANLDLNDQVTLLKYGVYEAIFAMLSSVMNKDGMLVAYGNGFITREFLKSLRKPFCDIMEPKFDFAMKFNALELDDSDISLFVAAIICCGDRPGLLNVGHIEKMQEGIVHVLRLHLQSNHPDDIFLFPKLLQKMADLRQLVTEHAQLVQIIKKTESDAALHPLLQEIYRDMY
As to conditions: read-out: ECso for PPARa; cited from earlier work.

Another series deals with T2, PPARy (Homo sapiens, UniProt P37231).
T2 sequence (P37231 1-505): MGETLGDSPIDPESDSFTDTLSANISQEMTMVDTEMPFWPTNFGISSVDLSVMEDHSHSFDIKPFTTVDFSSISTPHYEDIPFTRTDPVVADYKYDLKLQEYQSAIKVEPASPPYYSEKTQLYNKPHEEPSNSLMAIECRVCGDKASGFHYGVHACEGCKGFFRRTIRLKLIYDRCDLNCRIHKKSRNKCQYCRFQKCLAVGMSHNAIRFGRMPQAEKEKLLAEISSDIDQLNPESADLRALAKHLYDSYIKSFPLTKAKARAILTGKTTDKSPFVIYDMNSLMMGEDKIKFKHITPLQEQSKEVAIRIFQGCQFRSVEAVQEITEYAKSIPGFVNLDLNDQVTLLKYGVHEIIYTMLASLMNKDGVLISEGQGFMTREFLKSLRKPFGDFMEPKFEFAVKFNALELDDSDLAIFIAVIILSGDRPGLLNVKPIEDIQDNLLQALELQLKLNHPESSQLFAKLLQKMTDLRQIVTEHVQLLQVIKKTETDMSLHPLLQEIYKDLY
To be noted: read-out: ECso for PPARy; cited from earlier work.

The nature of series [2]: Example 6: oral mavodelpar in uremic pruritus. The series is classed as in vivo, human. To be noted: oral 5, 10, 25, 50 and 100 mg/day; end-stage renal disease on hemodialysis. As for the experimental part: (§1) Adult subjects with end-stage renal disease on routine hemodialysis are treated orally with doses of 5, 10, 25, 50, and 100 mg/day of mavodelpar. Subjects are permitted their usual other medications. The subjects are assessed before the study, and at intervals during the study, such as every 4 weeks during the study and 4 weeks after the last dose of the mavodelpar therapy, for safety and pharmacodynamic evaluations. At each visit, the subjects are assessed for their disease symptoms and biomarkers, and assessed for uremic pruritus. The subjects also maintain health diaries, which are reviewed at each visit.

Series [3] can be described thus: Example 7: topical mavodelpar in uremic pruritus. It counts as in vivo, human. As to conditions: topical ointment 1, 2, 5 or 10%; end-stage renal disease on hemodialysis. As for the experimental part: as §1, with “topically” for “orally”, “an ointment containing 1, 2,” for “doses of”, “or 10%” for “10, 25, 50, and 100 mg/day”, “for” for “for uremic”
The subject of series [4] is IL-31. To be noted: humanized liver murine model; cited from earlier work.
The conditions of series [5]: 12-month trial, PBC patients, cited from earlier work.
The test system of another series is human IL-31. Description: Serum human IL-31 in PXB mice (humanized liver) after 19 days of dosing. It counts as in vivo, PXB mouse. To be noted: gavage once/day for 19 days, 2 h after last dose; day 0 0.13 pg/mL. From the text: The PXB mouse (PhoenixBio Co., Ltd., Higashi-Hiroshima, Japan) is a chimeric mouse with a humanized liver, produced by transplanting human hepatocytes into the albumin enhancer/promoter-urokinase-type plasminogen activator complementary DNA transgenic/SCID mouse. The mouse has its liver repopulated by human hepatocytes at a ratio of more than 70%, typically 85-90%, as assessed by measuring the ratio of human albumin to mouse albumin in the blood. The transplanted human hepatocytes express a variety of human messenger RNA (mRNA) and proteins, in a similar manner to those of the normal human liver. […] The study was conducted at PhoenixBio. Male PXB mice aged about 25 weeks, kept in single animal cages and fed CRF1 mouse chow supplemented with AS primate chow for vitamin C supplementation (both from Oriental Yeast Co., Ltd., Tokyo, Japan), were randomized into groups (10/group) based on mean values for body weight and blood human albumin concentration. […] Two hours after the last dose, each mouse was anesthetized with isoflurane, at least 400 μL blood was collected by cardiac puncture, and the mouse sacrificed by exsanguination. The blood samples were left to coagulate at room temperature for at least 5 minutes, then centrifuged at 13200×g for 3 minutes at 4 °C to obtain serum, which was analyzed for human IL-31.

Series [6] in a line: Example 5: topical seladelpar in uremic pruritus. The series is classed as in vivo, human. As to conditions: topical ointment 1, 2, 5 or 10%; end-stage renal disease on hemodialysis. Here is the method:
Subjects are permitted their usual other medications. […] At each visit, the subjects are assessed for their disease symptoms and biomarkers, and assessed for pruritus. The subjects also maintain health diaries, which are reviewed at each visit.

Series [7] in a line: Example 4: oral seladelpar in uremic pruritus. It counts as in vivo, human. To be noted: oral 5, 10, 25 and 50 mg/day; end-stage renal disease on hemodialysis. As for the experimental part: Subjects are permitted their usual other medications. […] At each visit, the subjects are assessed for their disease symptoms and biomarkers, and assessed for uremic pruritus. The subjects also maintain health diaries, which are reviewed at each visit.

The nature of series [8]: Studies of oral seladelpar in PBC. The series is classed as in vivo, human.
For series [9], the system named is IL-31 production by CD4 T cells. Description: IL-31 production by CD4 T cells under Th2-promoting conditions. It counts as cell-based, human. As to conditions: for IL-31 concentration in culture medium, mean: 10 μM seladelpar. Here is the method: CD4 T cells were enriched from peripheral blood mononuclear cells collected from two normal healthy donors, using the EasySep™ Human CD4+ T Cell Isolation Kit ([…] Technologies). 100,000 CD4 T cells were seeded in a U-bottom 96-well-plate well, and cultured in Th2-promoting conditions promoted by IL-4 or IL-33. […] On day 5 of culture, the anti-CD3/CD28 beads were diluted by adding 150 μL TCM. From days 5 to 13, the cells were cultured in the presence of the same reagents as for days 1 to 4 plus 50 ng/ml IL-2; and the cell culture medium was renewed every 2-3 days by a change of 50% volume of the medium. On day 13 or day 14, the expanded T cells in an individual well were split to four to six wells of 96-well-plate wells; and 5 ng/mL phorbol myristate acetate and 500 ng/mL ionomycin were added for 3 days to re-activate the T cells. The IL-31 concentration in the culture medium of each well was determined using the V-PLEX Human IL-31 Kit (Meso Scale Diagnostics, LLC; Rockville, MD, USA).

Series [10] has as its target T3, peroxisome proliferator-activated receptor-α (Homo sapiens, UniProt Q07869).
T3 sequence (Q07869 1-468): T1 sequence (Q07869 1-468)
Nature of the series: Specificity of seladelpar for PPARδ compared with PPARα. It counts as biochemical. As to conditions: PPARδ vs PPARα. The text has this: It is specific (>600-fold and >2500-fold compared with peroxisome proliferator-activated receptor-α and peroxisome proliferator-activated receptor-γ receptors). PPARδ activation stimulates fatty acid oxidation and utilization, improves plasma lipid and lipoprotein metabolism, glucose utilization, and mitochondrial respiration, and preserves stem cell homeostasis.

The test system of series [11] is IL-31. Description: ENHANCE phase 3 study in PBC (NCT03602560): serum IL-31. It counts as in vivo, human. To be noted: 12 weeks, p<0.001. The text has this:
The trial subjects in this phase 3 study were adult, male or female, with a diagnosis of PBC. Exclusion criteria included AST or ALT≥3×ULN, total bilirubin (TBIL)≥2×ULN, autoimmune hepatitis or a history of chronic viral hepatitis, PSC, the current use of fibrates or simvastatin, the use of colchicine, methotrexate, azathioprine, or systemic steroids in the previous two months, the use of an experimental treatment for PBC, and the use of an experimental or unapproved immunosuppressant. […] Serum IL-31 and its correlation with patient-reported pruritus numerical rating scale (NRS, 0-10) were assessed. Baseline IL-31 levels positively correlated with pruritus NRS; r=0.54, p<0.0001). […] IL-31 compared to subjects with pruritus NRS<4 (7.6 pg/mL [1.2, 14.5] vs 1.2 pg/mL [0.3, 2.8], p<0.0001). At baseline, IL-31 was also correlated with serum total bile acids (r=0.54, p<0.0001) and alkaline phosphatase (ALP) (r=0.44, p<0.0001).

pEC50: −log10 of the molar value. Read-outs that look alike come from different tables or passages of the source.

For `O=C(O)c1ccnc(N2CC(O)(c3ccc(OCc4c(-c5c(Cl)cccc5Cl)noc4C4CC4)cc3Cl)C2)c1` [cilofexor], the “effect on IL-31” value in the series on IL-31 [1] is reported as “increased IL-31”.
On to `Cc1cc(OC/C=C(/c2ccc(F)cc2)c2ccc(C#CCN3CCOCC3)cc2)ccc1OCC(=O)O` [mavodelpar, (4-{[(2E)-3-(4-fluorophenyl)-3-{4-[3-(morpholin-4-yl)prop-1-yn-1-yl]phenyl}prop-2-en-1-yl]oxy}-2-methylphenoxy)acetic acid], for which the pEC50 at PPARa and on PPARy was under 5.00 in each case. The uremic pruritus entry in series [2] and in series [3] was “improvement in their uremic pruritus” throughout.
Turning to `CC[C@H]1[C@@H](O)[C@@H]2[C@H](CC[C@]3(C)[C@@H]([C@H](C)CCC(=O)O)CC[C@@H]23)[C@@]2(C)CC[C@@H](O)C[C@@H]12` [obeticholic acid], the “mRNA expression in human hepatocytes” value in the series with IL-31 [4] is “increased”. Besides, the figures for the “patients with severe pruritus” value in series [5] (OCALIVA 10 mg arm) and in [5] (OCALIVA titration arm) were 23% and 19%, respectively. For the same molecule, the “serum IL-31 concentration” value in the series on human IL-31 came out at 3.7 pg/mL.
Regarding `CCO[C@H](COc1ccc(C(F)(F)F)cc1)CSc1ccc(OCC(=O)O)c(C)c1` [seladelpar, [4-({(2R)-2-ethoxy-3-[4-(trifluoromethyl)phenoxy]propyl}sulfanyl)-2-methylphenoxy]acetic acid], the uremic pruritus entry in [6] and in [7] was “improvement in their uremic pruritus” throughout. The “efficacy in PBC” value in series [8] (oral doses of 5, 10, 50 and 200 mg/day) is “effective in the treatment of PBC”. Moreover, the “effect on cholestatic pruritus (exacerbation)” value in series [8] (oral doses of 5, 10, 50 and 200 mg/day in PBC) is listed as “not to exacerbate cholestatic pruritus”. Also, the “efficacy in cholestatic pruritus associated with PBC” value in [8] (oral doses of 5 and 10 mg/day) is on record as “effective in the treatment of cholestatic pruritus”. The “effect on IL-31” value in series [8] (studies in PBC) is given as “reduce IL-31”. Further, in the series with human IL-31, the “serum IL-31 concentration” value is recorded as 0.19 pg/mL. Besides, the “IL-31 concentration in culture medium, mean” value worked out at 36.00 pg/mL in series [9] (Donor 1, IL-4 promoted); 10.14 pg/mL in [9] (Donor 1, IL-33 promoted); 27.28 pg/mL in series [9] (Donor 2, IL-4 promoted); 324.05 pg/mL in series [9] (Donor 2, IL-33 promoted). Moreover, the “effect on IL-31 production by CD4 T cells” value in series [9] (both donors, both promoters, p<0.0001 vs DMSO, Mann-Whitney) was “reduced IL-31 production”. Besides, the “specificity compared with peroxisome proliferator-activated receptor-α” value in series [10] is recorded as over 600 fold. For the same molecule, the “mean IL-31 level at end of study” value with IL-31 [11] (5 mg/day oral, from 3.8 pg/mL at baseline) is on record as 1.7 pg/mL; in the series with IL-31 [11] (10 mg/day oral, from 4.2 pg/mL at baseline) it was 1.7 pg/mL.
